Data: patent publication US12643886B2 (Ontario Institute for Cancer Research (OICR), priority 2021, dated 2026)

Columns and labels:
Format in all cases: biochemical
NUAK2 (h) = target: T1, NUAK2 (h) (Homo sapiens, UniProt Q9H093); experiment: NUAK2 enzymatic assay (radiometric, Eurofins); conditions: full-length recombinant enzyme
T1 construct: This assay was done radiometrically using full-length, recombinant enzyme; purchased Eurofins
T1 sequence (Q9H093 1-628): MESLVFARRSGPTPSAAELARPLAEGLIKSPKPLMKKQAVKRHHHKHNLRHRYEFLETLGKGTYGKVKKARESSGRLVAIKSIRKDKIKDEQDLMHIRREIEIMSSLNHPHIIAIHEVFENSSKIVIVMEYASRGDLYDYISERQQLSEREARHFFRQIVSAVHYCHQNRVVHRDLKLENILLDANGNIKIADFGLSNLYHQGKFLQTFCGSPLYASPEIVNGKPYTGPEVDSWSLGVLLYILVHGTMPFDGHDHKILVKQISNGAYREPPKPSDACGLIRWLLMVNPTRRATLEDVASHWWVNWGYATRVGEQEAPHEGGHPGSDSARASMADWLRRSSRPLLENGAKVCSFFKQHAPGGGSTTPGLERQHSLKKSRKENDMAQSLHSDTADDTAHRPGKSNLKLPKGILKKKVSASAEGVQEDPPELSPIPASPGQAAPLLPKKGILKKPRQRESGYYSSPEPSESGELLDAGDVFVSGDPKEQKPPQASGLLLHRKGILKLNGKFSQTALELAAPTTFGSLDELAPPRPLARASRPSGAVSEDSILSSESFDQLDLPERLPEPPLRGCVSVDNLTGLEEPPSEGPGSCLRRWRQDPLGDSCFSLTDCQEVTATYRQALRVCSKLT
Procedure: (§1) To identify small molecule NUAK inhibitors, a biochemical NUAK2 enzymatic assay were outsourced to Eurofins. This assay was done radiometrically using full-length, recombinant enzyme. NUAK2 (h) was incubated with 8 mM MOPS pH 7.0, 0.2 mM EDTA, 300 μM […], 10 mM magnesium acetate and […] (specific activity and concentration as required). The reaction was initiated by the addition of the Mg/ATP mix. After incubation for 40 minutes at room temperature, the reaction was stopped by the addition of phosphoric acid to a concentration of 0.5%. 10 μL of the reaction was then spotted onto a P30 filtermat and washed four times for 4 minutes in 0.425% phosphoric acid and once in methanol prior to drying and scintillation counting. Compounds were routinely counter-screened against Aurora A and NUAK1. The results are shown in Table 1 where IC50's are reported in the following ranges: A: 0.1-10 nM; B: 11-100 nM; C: 101-1000 nM; D: >1000 nM for the compounds of Formula (I)

NUAK1 = target: T2, NUAK1 (Homo sapiens, UniProt O60285); experiment: Counter-screen against NUAK1
T2 sequence (O60285 1-661): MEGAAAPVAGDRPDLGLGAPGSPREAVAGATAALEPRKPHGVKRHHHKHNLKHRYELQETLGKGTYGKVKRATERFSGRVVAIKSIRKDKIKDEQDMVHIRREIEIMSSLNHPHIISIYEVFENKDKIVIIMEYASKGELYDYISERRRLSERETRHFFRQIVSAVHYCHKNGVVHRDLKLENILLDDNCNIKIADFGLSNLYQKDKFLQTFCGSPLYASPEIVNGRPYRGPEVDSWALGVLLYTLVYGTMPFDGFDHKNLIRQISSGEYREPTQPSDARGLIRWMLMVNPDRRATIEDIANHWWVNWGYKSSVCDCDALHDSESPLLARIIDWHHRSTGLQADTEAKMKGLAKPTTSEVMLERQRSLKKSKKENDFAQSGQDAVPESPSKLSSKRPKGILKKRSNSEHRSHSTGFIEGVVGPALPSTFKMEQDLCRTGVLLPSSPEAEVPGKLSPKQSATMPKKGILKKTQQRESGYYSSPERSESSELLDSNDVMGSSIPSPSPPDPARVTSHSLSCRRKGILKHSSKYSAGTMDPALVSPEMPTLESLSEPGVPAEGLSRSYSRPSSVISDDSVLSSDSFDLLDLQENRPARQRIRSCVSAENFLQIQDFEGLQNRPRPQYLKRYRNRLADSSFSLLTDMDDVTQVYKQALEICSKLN
Procedure: as §1

Aurora A = target: T3, Aurora A (Homo sapiens, UniProt O14965); experiment: Counter-screen against Aurora A; conditions: read-out: AUR-A (IC50)
T3 sequence (O14965 1-403): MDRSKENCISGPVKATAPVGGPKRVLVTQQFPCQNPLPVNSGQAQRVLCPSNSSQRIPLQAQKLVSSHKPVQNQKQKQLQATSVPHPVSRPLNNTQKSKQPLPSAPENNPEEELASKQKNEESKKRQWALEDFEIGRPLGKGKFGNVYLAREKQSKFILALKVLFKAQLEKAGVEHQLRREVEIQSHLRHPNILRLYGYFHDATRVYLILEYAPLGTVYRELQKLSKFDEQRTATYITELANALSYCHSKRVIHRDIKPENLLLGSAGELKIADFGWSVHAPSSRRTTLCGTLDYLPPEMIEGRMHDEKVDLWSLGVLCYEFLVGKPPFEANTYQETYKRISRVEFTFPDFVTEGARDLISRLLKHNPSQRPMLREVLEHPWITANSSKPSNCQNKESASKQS
Procedure: as §1

Work on COc1cc2c(cc1Nc1ncc(Cl)c(Nc3cccc4c3C(=O)NC4)n1)CCN(C(C)C)C2 [Compound I-18, 7-((5-chloro-2-((2-isopropyl-7-methoxy-1,2,3,4-tetrahydroisoquinolin-6-yl)amino)pyrimidin-4-yl)amino)isoindolin-1-one] yielded an IC50 (NUAK2 (h)) of 0.1 to 10 nM, an IC50 (NUAK1) of 11 to 100 nM and an IC50 (Aurora A) of over 1000 nM.

COc1cc2c(cc1Nc1ncc(Cl)c(Nc3cccc4c3C(=O)NC4)n1)CCN(CCC(F)(F)F)C2 [Compound I-19, 7-((5-chloro-2-((7-methoxy-2-(3,3,3-trifluoropropyl)-1,2,3,4-tetrahydroisoquinolin-6-yl)amino)pyrimidin-4-yl)amino)isoindolin-1-one] was tested, and the IC50 (NUAK2 (h)) was 11 to 100 nM, the IC50 (NUAK1) was 101 to 1000 nM and the IC50 (Aurora A) was over 1000 nM.

CN1CCN(C2CCN(c3ccc(Nc4ncc(C(F)(F)F)c(Nc5cccc6c5C(=O)NC6)n4)c(OC(F)F)c3)CC2)CC1 [Compound I-20, 7-((2-((2-(difluoromethoxy)-4-(4-(4-methylpiperazin-1-yl)piperidin-1-yl)phenyl)amino)-5-(trifluoromethyl)pyrimidin-4-yl)amino)isoindolin-1-one] gave an IC50 (NUAK2 (h)) of 0.1 to 10 nM, an IC50 (NUAK1) of 11 to 100 nM and an IC50 (Aurora A) of 101 to 1000 nM.

For COc1cc2c(cc1Nc1ncc(C(F)(F)F)c(Nc3cccc4c3C(=O)NC4)n1)CN(C)CC2 [Compound I-21, 7-((2-((6-methoxy-2-methyl-1,2,3,4-tetrahydroisoquinolin-7-yl)amino)-5-(trifluoromethyl)pyrimidin-4-yl)amino)isoindolin-1-one], the IC50 (NUAK2 (h)) was 11 to 100 nM, the IC50 (NUAK1) was 11 to 100 nM and the IC50 (Aurora A) was 101 to 1000 nM.

COc1cc2c(cc1Nc1ncc(C(F)(F)F)c(Nc3cccc4c3C(=O)NC4)n1)CCN(C)C2 [Compound I-22, 7-((2-((7-methoxy-2-methyl-1,2,3,4-tetrahydroisoquinolin-6-yl)amino)-5-(trifluoromethyl)pyrimidin-4-yl)amino)isoindolin-1-one] gave an IC50 (NUAK2 (h)) of 0.1 to 10 nM, an IC50 (NUAK1) of 11 to 100 nM and an IC50 (Aurora A) of 101 to 1000 nM.

COc1cc2c(cc1Nc1ncc(Cl)c(Nc3cccc4c3C(=O)NC4)n1)CNCC2 [Compound I-23, 7-((5-chloro-2-((6-methoxy-1,2,3,4-tetrahydroisoquinolin-7-yl)amino)pyrimidin-4-yl)amino)isoindolin-1-one] was tested, and the IC50 (NUAK2 (h)) was 11 to 100 nM, the IC50 (NUAK1) was 11 to 100 nM and the IC50 (Aurora A) was 101 to 1000 nM.

For O=C1NCc2cccc(Nc3nc(Nc4ccc(N5CCNCC5)cc4OC(F)F)ncc3Cl)c21 [Compound I-24, 7-((5-chloro-2-((2-(difluoromethoxy)-4-(piperazin-1-yl)phenyl)amino)pyrimidin-4-yl)amino)isoindolin-1-one], the IC50 (NUAK2 (h)) was 0.1 to 10 nM, the IC50 (NUAK1) was 11 to 100 nM and the IC50 (Aurora A) was over 1000 nM.

In the case of COc1cc2c(cc1Nc1ncc(Cl)c(Nc3cccc4c3C(=O)NC4)n1)CNCC21CC1 [Compound I-25, 7-((5-chloro-2-((6′-methoxy-2′,3′-dihydro-1′H-spiro[cyclopropane-1,4′-isoquinolin]-7′-yl)amino)pyrimidin-4-yl)amino)isoindolin-1-one], the IC50 (NUAK2 (h)) is reported as 11 to 100 nM, the IC50 (NUAK1) is reported as 11 to 100 nM and the IC50 (Aurora A) is reported as over 1000 nM.

COc1cc2c(cc1Nc1ncc(Cl)c(Nc3cccc4c3C(=O)NC4)n1)CCNCC2 [Compound I-26, 7-((5-chloro-2-((8-methoxy-2,3,4,5-tetrahydro-1H-benzo[d]azepin-7-yl)amino)pyrimidin-4-yl)amino)isoindolin-1-one] was tested, and the IC50 (NUAK2 (h)) was 11 to 100 nM, the IC50 (NUAK1) was 11 to 100 nM and the IC50 (Aurora A) was over 1000 nM.

In the case of CN1C[C@@H]2CN(c3ccc(Nc4ncc(Cl)c(Nc5cccc6c5C(=O)NC6)n4)c(OC(F)F)c3)C[C@@H]2C1 [Compound I-28, 7-((5-chloro-2-((2-(difluoromethoxy)-4-((3aR,6aS)-5-methylhexahydropyrrolo[3,4-c]pyrrol-2(1H)-yl)phenyl)amino)pyrimidin-4-yl)amino)isoindolin-1-one], the IC50 (NUAK2 (h)) is reported as 0.1 to 10 nM, the IC50 (NUAK1) is reported as 11 to 100 nM and the IC50 (Aurora A) is reported as over 1000 nM.

Work on COc1c(Nc2ncc(Cl)c(Nc3cccc4c3C(=O)NC4)n2)ccc(N2C[C@H]3CN(C)C[C@H]3C2)c1F [Compound I-29, 7-((5-chloro-2-((3-fluoro-2-methoxy-4-((3aR,6aS)-5-methylhexahydropyrrolo[3,4-c]pyrrol-2(1H)-yl)phenyl)amino)pyrimidin-4-yl)amino)isoindolin-1-one] yielded an IC50 (NUAK2 (h)) of 11 to 100 nM, an IC50 (NUAK1) of 11 to 100 nM and an IC50 (Aurora A) of 101 to 1000 nM.

In the case of COc1cc2c(cc1Nc1ncc(C(F)(F)F)c(Nc3cccc4c3C(=O)NC4)n1)CNCC2 [Compound I-30, 7-((2-((6-methoxy-1,2,3,4-tetrahydroisoquinolin-7-yl)amino)-5-(trifluoromethyl)pyrimidin-4-yl)amino)isoindolin-1-one], the IC50 (NUAK2 (h)) is reported as 0.1 to 10 nM, the IC50 (NUAK1) is reported as 0.1 to 10 nM and the IC50 (Aurora A) is reported as 101 to 1000 nM.

CC(C)(C)N1CCN(C2CCN(c3ccc(Nc4ncc(C(F)(F)F)c(Nc5cccc6c5C(=O)NC6)n4)c(OC(F)F)c3)CC2)CC1 [Compound I-31, 7-((2-((4-(4-(4-(tert-butyl)piperazin-1-yl)piperidin-1-yl)-2-(difluoromethoxy)phenyl)amino)-5-(trifluoromethyl)pyrimidin-4-yl)amino)isoindolin-1-one] gave an IC50 (NUAK2 (h)) of 0.1 to 10 nM, an IC50 (NUAK1) of 11 to 100 nM and an IC50 (Aurora A) of 101 to 1000 nM.

CC(C)N1CCN(C2CCN(c3ccc(Nc4ncc(C(F)(F)F)c(Nc5cccc6c5C(=O)NC6)n4)c(OC(F)F)c3)CC2)CC1 [Compound I-32, 7-((2-((2-(difluoromethoxy)-4-(4-(4-isopropylpiperazin-1-yl)piperidin-1-yl)phenyl)amino)-5-(trifluoromethyl)pyrimidin-4-yl)amino)isoindolin-1-one] gave an IC50 (NUAK2 (h)) of 11 to 100 nM, an IC50 (NUAK1) of 11 to 100 nM and an IC50 (Aurora A) of 101 to 1000 nM.

For COc1c(Nc2ncc(C(F)(F)F)c(Nc3cccc4c3C(=O)NC4)n2)ccc(N2C[C@H]3CN(C)C[C@H]3C2)c1F [Compound I-35, 7-((2-((3-fluoro-2-methoxy-4-((3aR,6aS)-5-methylhexahydropyrrolo[3,4-c]pyrrol-2(1H)-yl)phenyl)amino)-5-(trifluoromethyl)pyrimidin-4-yl)amino)isoindolin-1-one], the IC50 (NUAK2 (h)) was 11 to 100 nM, the IC50 (NUAK1) was 11 to 100 nM and the IC50 (Aurora A) was 101 to 1000 nM.

CN1CCN(c2ccc(Nc3ncc(C(F)(F)F)c(Nc4cccc5c4C(=O)NC5)n3)c(Cl)c2F)CC1 [Compound I-36, 7-((2-((2-chloro-3-fluoro-4-(4-methylpiperazin-1-yl)phenyl)amino)-5-(trifluoromethyl)pyrimidin-4-yl)amino)isoindolin-1-one] was tested, and the IC50 (NUAK2 (h)) was 11 to 100 nM, the IC50 (NUAK1) was 0.1 to 10 nM and the IC50 (Aurora A) was 11 to 100 nM.

COc1c(Nc2ncc(C(F)(F)F)c(Nc3cccc4c3C(=O)NC4)n2)ccc(N2CCC(N3CCCC3)CC2)c1F [Compound I-37, 7-((2-((3-fluoro-2-methoxy-4-(4-(pyrrolidin-1-yl)piperidin-1-yl)phenyl)amino)-5-(trifluoromethyl)pyrimidin-4-yl)amino)isoindolin-1-one] showed an IC50 (NUAK2 (h)) of 0.1 to 10 nM, an IC50 (NUAK1) of 11 to 100 nM and an IC50 (Aurora A) of 11 to 100 nM.
